# Experiments:
# Assay in all cases: MIC, liquid medium test tube series dilution test
# E. coli 14 = assay type: cell-based; conditions: E. coli 14, 24 hours, 37°C
# Procedure, shortened: (§1)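 Tube dilution, liquid complete medium, 37°C/24 h; MIC = non-turbid tube; units/ml.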
# E. coli 183/58 = assay type: cell-based; conditions: E. coli 183/58, 24 hours, 37°C
# Procedure, shortened: as §1
# E. coli A 261 = assay type: cell-based; conditions: E. coli A 261, 24 hours, 37°C
# Procedure, shortened: as §1
# E. coli C 165 = assay type: cell-based; conditions: E. coli C 165, 24 hours, 37°C
# Procedure, shortened: as §1
# Klebsiella K 10 = assay type: cell-based; conditions: Klebsiella K 10, 24 hours, 37°C
# Procedure, shortened: as §1
# Psdm. aerug. Bonn = assay type: cell-based, Pseudomonas aerug.; conditions: 24 hours, 37°C
# Procedure, shortened: as §1
# Psdm. aerug. Walter = assay type: cell-based, Pseudomonas aerug.; conditions: 24 hours, 37°C
# Procedure, shortened: as §1
# Staph. aureus 133 = assay type: cell-based, Staphylococcus aureus; conditions: Staph. aureus 133, 24 hours, 37°C
# Procedure, shortened: as §1
# Staph. aureus 1777 E = assay type: cell-based, Staphylococcus aureus; conditions: 24 hours, 37°C
# Procedure, shortened: as §1
# Klebsiella 63 = assay type: cell-based; conditions: Klebsiella 63, 24 hours, 37°C
# Procedure, shortened: as §1
# [1] = test system: Streptoc. faec. ATCC 9790; assay type: cell-based; conditions: Strep. faec. (Enterococcus) ATCC 9790, 24 hours, 37°C
# Procedure, shortened: as §1
# Proteus vulg. 1017 = assay type: cell-based, Proteus vulgaris; conditions: Proteus vulg. 1017, 24 hours, 37°C
# Procedure, shortened: as §1
# Proteus vulg. 3400 = assay type: cell-based, Proteus vulgaris; conditions: Proteus vulg. 3400, 24 hours, 37°C
# Procedure, shortened: as §1
Compound,MIC (E. coli 14),MIC (E. coli 183/58),MIC (E. coli A 261) [units/ml],MIC (E. coli C 165),MIC (Klebsiella K 10) [units/ml],MIC (Psdm. aerug. Bonn),MIC (Psdm. aerug. Walter),MIC (Staph. aureus 133),MIC (Staph. aureus 1777 E),MIC (Klebsiella 63),MIC [1] [units/ml],MIC (Proteus vulg. 1017),MIC (Proteus vulg. 3400) [units/ml]
"CC1(C)S[C@@H]2[C@H](NC(=O)[C@H](NC(=O)N3CCNC3=O)c3ccccc3)C(=O)N2[C@H]1C(=O)O [Example 52, D(-)-α-[(Imidazolidin-2-on-1-yl)-carbonylamino]-benzylpenicillin]","3,12 units/ml","6,25 units/ml",> 400,"12,5 units/ml",100,"12,5 units/ml","12,5 units/ml","< 0,78 units/ml",200 units/ml,,,,
"CCCCCCCCCCCCCCCCCC(=O)N(C)C(=O)N[C@@H](C(=O)N[C@@H]1C(=O)N2[C@@H]1SC(C)(C)[C@@H]2C(=O)O)c1ccccc1 [Example 71, Sodium D(-)-α-(3-stearinoyl-3-methyl-ureido)-benzylpenicillin]",> 400 units/ml,> 400 units/ml,> 400,> 400 units/ml,> 400,> 400 units/ml,400 units/ml,200 units/ml,,> 400 units/ml,> 400,> 400 units/ml,> 400
"CC1(C)S[C@@H]2[C@H](NC(=O)[C@H](NC(=O)N(CCCl)C(=O)CCC(Cl)(Cl)Cl)c3ccccc3)C(=O)N2[C@H]1C(=O)O [Example 72, Sodium D(-)-α-(3-γ-trichlorobutyryl-3-β-chloroethyl-ureido)-benzylpenicillin]",6.25 units/ml,12.5 units/ml,400,25 units/ml,100,50 units/ml,400 units/ml,< 0.78 units/ml,,50 units/ml,100,50 units/ml,200
"CCCCCCCCCCCCCCCCN(C(C)=O)C(=O)N[C@@H](C(=O)N[C@@H]1C(=O)N2[C@@H]1SC(C)(C)[C@@H]2C(=O)O)c1ccccc1 [Example 74, Sodium D(-)-α-(3-acetyl-3-hexadecyl-ureido)-benzylpenicillin]",100 units/ml,> 400 units/ml,> 400,> 400 units/ml,> 400,> 400 units/ml,> 400 units/ml,25 units/ml,,> 400 units/ml,> 400,> 400 units/ml,> 400
"CN(C(=O)CCCCl)C(=O)N[C@@H](C(=O)N[C@@H]1C(=O)N2[C@@H]1SC(C)(C)[C@@H]2C(=O)O)c1ccccc1 [Example 88, Sodium D(-)-α-(3-γ-chlorobutyryl-3-methyl-ureido)-benzylpenicillin]",1.56 units/ml,3.12 units/ml,400,6.25 units/ml,50,25 units/ml,50 units/ml,< 0.78 units/ml,,25 units/ml,50,12.5 units/ml,6.25
"CN(C(=O)CCC(Cl)(Cl)Cl)C(=O)N[C@@H](C(=O)N[C@@H]1C(=O)N2[C@@H]1SC(C)(C)[C@@H]2C(=O)O)c1ccccc1 [Example 89, Sodium (-)-α-(3-γ-trichlorobutyryl-3-methyl-ureido)-benzylpenicillin]",1.56 units/ml,1.56 units/ml,400,6.25 units/ml,25,25 units/ml,50 units/ml,< 0.78 units/ml,,12.5 units/ml,100,3.12 units/ml,12.5
"CCC(=O)N(C)C(=O)N[C@@H](C(=O)N[C@@H]1C(=O)N2[C@@H]1SC(C)(C)[C@@H]2C(=O)O)c1ccccc1 [Example 113, Sodium D(-)-α-(3-propionyl-3-methyl-ureido)-benzylpenicillin]",,,,0.8-4 units/ml,,,4-20 units/ml,0.8 units/ml,100-500 units/ml,100-500 units/ml,,4-20 units/ml,
"CCN(C(C)=O)C(=O)N[C@@H](C(=O)N[C@@H]1C(=O)N2[C@@H]1SC(C)(C)[C@@H]2C(=O)O)c1ccccc1 [Example 114, Sodium D(-)-α-(3-acetyl-3-ethyl-ureido)-benzylpenicillin]",,,,4-20 units/ml,,,4-20 units/ml,0.8 units/ml,100-500 units/ml,100-500 units/ml,,20-100 units/ml,
"CCCN(C(C)=O)C(=O)N[C@@H](C(=O)N[C@@H]1C(=O)N2[C@@H]1SC(C)(C)[C@@H]2C(=O)O)c1ccccc1 [Example 115, Sodium D(-)-α-(3-acetyl-3-n-propyl-ureido)-benzylpenicillin]",,,,20-100 units/ml,,,20-100 units/ml,0.8 units/ml,100-500 units/ml,100-500 units/ml,,20-100 units/ml,
"CC(C)C(=O)N(C)C(=O)N[C@@H](C(=O)N[C@@H]1C(=O)N2[C@@H]1SC(C)(C)[C@@H]2C(=O)O)c1ccccc1 [Example 116, Sodium D(-)-α-(3-i-butyryl-3-methyl-ureido)-benzylpenicillin]",,,,4-20 units/ml,,,~20 units/ml,0.8 units/ml,100-500 units/ml,20-100 units/ml,,4-20 units/ml,
"CC(=O)N(C(=O)N[C@@H](C(=O)N[C@@H]1C(=O)N2[C@@H]1SC(C)(C)[C@@H]2C(=O)O)c1ccccc1)c1ccccc1 [Example 130, Sodium D(-)-α-(3-acetyl-3-phenyl-ureido)-benzylpenicillin]",12.5 units/ml,100 units/ml,> 400,100 units/ml,25,200 units/ml,200 units/ml,< 0.8 units/ml,,50 units/ml,50,200 units/ml,400
"CN(C(=O)N[C@@H](C(=O)N[C@@H]1C(=O)N2[C@@H]1SC(C)(C)[C@@H]2C(=O)O)c1ccccc1)C(=O)c1ccccc1[N+](=O)[O-] [Example 140, Sodium D(-)-α-(3-o-nitrobenzoyl-3-methyl-ureido)-benzylpenicillin]",0.8 units/ml,1.6 units/ml,50,3.1 units/ml,12.5,12.5 units/ml,12.5 units/ml,< 0.8 units/ml,,25 units/ml,12.5,3.1 units/ml,6.25
"CN(C(=O)N[C@@H](C(=O)N[C@@H]1C(=O)N2[C@@H]1SC(C)(C)[C@@H]2C(=O)O)c1ccccc1)C(=O)c1ccc(Cl)cc1Cl [Example 142, Sodium D(-)-α-(3-[2,4-dichlorobenzoyl]-3-methyl-ureido)-benzylpenicillin]",0.8 units/ml,1.6 units/ml,50,3.1 units/ml,12.5,25 units/ml,12.5 units/ml,< 0.8 units/ml,,25 units/ml,25,3.1 units/ml,12.5
"CCC(=O)N(C(=O)N[C@@H](C(=O)N[C@@H]1C(=O)N2[C@@H]1SC(C)(C)[C@@H]2C(=O)O)c1ccccc1)c1ccccc1 [Example 143, Sodium D(-)-α-(3-propionyl-3-phenyl-ureido)-benzylpenicillin]",12.5 units/ml,50 units/ml,> 400,50 units/ml,50,200 units/ml,200 units/ml,< 0.8 units/ml,,100 units/ml,100,200 units/ml,400

# Reference: US3974140A, “Ureidoacetamido-penicillins” (Bayer Aktiengesellschaft, priority 1970, dated 1976)
